Source: ChEMBL document CHEMBL5465560, “Selectivity Literature for EUbOPEN Chemogenomic Library” (2024)
Values belong to the molecule of their own block, whether it stands above or below them.

Assays:
[1] = target: T1, Ephrin type-B receptor 1 (Homo sapiens) (UniProt P54762); test: Selectivity interaction (KinomeScan (DiscoverX)) EUB0000666a EPHB1; settings: at 10 µM
T1 sequence (whole entry): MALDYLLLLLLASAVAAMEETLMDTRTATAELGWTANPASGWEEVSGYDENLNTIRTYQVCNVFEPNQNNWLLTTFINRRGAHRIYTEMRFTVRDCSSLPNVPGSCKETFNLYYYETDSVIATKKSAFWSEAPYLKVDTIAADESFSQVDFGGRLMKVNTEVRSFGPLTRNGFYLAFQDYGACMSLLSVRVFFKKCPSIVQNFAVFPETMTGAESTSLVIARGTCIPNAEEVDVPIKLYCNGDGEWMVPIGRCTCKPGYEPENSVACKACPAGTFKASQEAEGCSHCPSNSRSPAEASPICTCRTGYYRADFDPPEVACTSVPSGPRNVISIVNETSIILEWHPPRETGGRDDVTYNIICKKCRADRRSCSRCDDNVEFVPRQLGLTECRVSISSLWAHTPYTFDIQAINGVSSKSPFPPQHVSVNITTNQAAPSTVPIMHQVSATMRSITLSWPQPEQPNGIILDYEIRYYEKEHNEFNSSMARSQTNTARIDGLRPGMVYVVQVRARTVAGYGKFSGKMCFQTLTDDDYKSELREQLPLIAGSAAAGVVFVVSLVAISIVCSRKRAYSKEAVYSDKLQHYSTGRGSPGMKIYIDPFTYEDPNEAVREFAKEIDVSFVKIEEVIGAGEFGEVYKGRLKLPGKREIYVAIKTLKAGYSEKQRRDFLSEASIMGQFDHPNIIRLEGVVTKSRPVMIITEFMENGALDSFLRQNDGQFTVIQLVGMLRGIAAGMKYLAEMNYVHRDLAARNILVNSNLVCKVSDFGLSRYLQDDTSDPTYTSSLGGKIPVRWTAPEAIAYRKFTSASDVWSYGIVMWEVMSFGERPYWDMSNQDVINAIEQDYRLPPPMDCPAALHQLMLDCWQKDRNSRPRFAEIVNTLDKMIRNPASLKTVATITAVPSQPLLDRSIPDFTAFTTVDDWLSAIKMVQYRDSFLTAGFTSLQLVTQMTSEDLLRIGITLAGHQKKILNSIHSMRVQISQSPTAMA

[2] = target: Cyclin-Y/Cyclin-dependent kinase 16 (Homo sapiens) (UniProt Q00536+Q8ND76); test: Selectivity interaction (ProQinase) EUB0000171b CDK16; type: protein-complex assay
[3] = target: T2, Phosphatidylinositol 3-kinase C2 domain-containing subunit gamma (Homo sapiens) (UniProt O75747); test: Selectivity interaction (KinomeScan (DiscoverX)) EUB0000695a PIK3C2G; settings: at 100 nM
T2 sequence (whole entry): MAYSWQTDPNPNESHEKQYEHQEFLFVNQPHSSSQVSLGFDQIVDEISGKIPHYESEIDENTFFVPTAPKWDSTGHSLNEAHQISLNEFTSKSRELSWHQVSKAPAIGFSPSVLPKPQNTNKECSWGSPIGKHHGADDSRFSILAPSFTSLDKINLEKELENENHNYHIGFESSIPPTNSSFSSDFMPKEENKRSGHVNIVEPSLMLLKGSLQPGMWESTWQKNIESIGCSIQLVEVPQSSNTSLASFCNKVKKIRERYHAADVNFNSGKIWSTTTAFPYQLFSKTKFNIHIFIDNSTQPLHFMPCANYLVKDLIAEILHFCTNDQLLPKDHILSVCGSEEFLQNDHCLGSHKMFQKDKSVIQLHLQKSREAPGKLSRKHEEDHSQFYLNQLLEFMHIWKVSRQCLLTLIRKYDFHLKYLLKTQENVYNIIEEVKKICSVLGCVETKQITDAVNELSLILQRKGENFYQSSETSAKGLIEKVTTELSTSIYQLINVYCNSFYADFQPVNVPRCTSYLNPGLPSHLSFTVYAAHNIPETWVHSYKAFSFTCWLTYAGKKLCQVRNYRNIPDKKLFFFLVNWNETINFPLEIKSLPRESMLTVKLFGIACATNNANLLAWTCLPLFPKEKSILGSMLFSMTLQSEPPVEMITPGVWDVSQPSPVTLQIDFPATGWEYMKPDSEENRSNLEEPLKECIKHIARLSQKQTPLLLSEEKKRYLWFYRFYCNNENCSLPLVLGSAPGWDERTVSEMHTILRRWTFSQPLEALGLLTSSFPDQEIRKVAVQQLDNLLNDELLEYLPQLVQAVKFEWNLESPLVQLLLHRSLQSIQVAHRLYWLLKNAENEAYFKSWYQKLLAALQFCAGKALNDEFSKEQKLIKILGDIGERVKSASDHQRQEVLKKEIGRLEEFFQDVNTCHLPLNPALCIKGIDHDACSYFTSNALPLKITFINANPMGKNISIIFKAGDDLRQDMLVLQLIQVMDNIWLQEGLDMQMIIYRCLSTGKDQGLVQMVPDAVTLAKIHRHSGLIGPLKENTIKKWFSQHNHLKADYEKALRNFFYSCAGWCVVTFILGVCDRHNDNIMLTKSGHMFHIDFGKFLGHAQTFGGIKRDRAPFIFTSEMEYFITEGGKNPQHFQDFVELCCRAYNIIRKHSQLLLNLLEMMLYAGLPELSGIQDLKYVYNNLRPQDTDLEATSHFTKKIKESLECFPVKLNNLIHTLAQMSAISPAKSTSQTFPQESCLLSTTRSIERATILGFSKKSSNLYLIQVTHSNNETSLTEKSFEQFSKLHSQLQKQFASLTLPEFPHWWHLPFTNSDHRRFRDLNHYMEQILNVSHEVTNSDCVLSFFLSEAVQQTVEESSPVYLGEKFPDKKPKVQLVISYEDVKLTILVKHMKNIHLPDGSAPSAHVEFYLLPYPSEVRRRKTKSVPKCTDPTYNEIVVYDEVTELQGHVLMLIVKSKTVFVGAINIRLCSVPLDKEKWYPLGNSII

[4] = target: Histone acetyltransferase p300 (Homo sapiens) (UniProt Q09472); test: Selectivity interaction (Bromodomain panel (DSF asssay)) EUB0000270b EP300
Chain of Histone acetyltransferase p300 (Homo sapiens) (Q09472 whole entry): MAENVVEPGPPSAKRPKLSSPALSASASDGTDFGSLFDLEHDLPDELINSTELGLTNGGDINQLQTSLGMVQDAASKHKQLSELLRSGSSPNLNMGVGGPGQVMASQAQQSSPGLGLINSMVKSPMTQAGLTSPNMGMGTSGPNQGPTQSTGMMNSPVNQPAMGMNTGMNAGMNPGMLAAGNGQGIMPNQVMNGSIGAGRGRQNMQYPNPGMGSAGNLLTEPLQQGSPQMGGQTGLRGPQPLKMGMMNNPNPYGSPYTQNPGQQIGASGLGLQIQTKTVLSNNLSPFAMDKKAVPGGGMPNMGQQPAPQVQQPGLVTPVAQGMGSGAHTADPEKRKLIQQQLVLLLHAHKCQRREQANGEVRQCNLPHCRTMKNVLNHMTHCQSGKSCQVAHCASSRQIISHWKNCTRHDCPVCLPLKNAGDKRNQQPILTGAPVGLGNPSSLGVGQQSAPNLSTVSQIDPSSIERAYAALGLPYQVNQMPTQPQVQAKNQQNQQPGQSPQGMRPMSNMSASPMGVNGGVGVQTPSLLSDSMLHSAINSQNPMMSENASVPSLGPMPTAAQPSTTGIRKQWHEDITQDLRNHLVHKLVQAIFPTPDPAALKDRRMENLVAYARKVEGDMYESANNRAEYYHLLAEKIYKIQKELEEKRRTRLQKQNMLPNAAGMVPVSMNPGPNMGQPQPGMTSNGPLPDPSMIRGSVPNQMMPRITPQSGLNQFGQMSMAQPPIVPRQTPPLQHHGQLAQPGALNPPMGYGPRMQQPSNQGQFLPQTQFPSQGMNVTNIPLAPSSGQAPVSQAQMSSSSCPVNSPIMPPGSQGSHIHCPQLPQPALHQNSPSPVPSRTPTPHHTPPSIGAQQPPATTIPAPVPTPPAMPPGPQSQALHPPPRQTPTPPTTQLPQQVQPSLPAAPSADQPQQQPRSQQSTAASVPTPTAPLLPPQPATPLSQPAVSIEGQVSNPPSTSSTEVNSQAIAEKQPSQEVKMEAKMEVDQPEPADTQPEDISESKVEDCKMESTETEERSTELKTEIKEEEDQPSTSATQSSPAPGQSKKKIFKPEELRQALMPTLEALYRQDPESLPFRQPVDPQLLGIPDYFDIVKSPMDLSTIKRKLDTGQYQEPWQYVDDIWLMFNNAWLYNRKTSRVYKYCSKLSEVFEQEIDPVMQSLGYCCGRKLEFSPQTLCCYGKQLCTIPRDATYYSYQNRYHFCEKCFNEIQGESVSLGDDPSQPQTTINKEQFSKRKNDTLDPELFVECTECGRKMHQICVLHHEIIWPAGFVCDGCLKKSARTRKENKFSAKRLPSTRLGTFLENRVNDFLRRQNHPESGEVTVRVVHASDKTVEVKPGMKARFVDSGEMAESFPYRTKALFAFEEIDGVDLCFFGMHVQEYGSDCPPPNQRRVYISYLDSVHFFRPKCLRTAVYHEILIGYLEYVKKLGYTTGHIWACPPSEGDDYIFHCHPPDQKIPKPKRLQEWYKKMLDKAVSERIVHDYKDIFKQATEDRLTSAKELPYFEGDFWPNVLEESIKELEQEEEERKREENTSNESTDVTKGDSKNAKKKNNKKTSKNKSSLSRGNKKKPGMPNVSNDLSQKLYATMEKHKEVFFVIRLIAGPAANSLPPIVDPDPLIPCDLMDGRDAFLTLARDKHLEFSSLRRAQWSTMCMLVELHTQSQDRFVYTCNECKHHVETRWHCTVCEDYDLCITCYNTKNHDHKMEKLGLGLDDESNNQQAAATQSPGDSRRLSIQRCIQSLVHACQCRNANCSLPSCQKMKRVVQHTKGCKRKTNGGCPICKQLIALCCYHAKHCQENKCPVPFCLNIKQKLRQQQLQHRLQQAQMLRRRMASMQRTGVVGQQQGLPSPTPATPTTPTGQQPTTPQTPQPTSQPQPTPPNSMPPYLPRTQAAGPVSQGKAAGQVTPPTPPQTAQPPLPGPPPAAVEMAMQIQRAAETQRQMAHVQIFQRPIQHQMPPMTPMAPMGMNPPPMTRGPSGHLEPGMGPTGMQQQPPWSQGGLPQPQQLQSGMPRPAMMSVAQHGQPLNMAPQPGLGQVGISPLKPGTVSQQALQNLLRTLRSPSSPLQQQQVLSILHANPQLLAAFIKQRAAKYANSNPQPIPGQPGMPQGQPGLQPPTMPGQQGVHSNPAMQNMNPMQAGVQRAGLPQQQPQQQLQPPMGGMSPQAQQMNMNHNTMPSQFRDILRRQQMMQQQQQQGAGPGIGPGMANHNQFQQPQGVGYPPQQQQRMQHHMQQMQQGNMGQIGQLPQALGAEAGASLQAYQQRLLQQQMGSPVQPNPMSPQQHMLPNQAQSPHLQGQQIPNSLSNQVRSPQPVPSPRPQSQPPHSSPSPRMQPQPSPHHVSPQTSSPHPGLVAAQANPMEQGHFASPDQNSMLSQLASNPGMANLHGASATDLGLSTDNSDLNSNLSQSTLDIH

[5] = target: Mitogen-activated protein kinase kinase kinase 11 (Homo sapiens) (UniProt Q16584); test: Selectivity interaction (KinomeScan (DiscoverX)) EUB0000092b MAP3K11; settings: at 10 µM
Chain of Mitogen-activated protein kinase kinase kinase 11 (Homo sapiens) (Q16584 whole entry, looked up): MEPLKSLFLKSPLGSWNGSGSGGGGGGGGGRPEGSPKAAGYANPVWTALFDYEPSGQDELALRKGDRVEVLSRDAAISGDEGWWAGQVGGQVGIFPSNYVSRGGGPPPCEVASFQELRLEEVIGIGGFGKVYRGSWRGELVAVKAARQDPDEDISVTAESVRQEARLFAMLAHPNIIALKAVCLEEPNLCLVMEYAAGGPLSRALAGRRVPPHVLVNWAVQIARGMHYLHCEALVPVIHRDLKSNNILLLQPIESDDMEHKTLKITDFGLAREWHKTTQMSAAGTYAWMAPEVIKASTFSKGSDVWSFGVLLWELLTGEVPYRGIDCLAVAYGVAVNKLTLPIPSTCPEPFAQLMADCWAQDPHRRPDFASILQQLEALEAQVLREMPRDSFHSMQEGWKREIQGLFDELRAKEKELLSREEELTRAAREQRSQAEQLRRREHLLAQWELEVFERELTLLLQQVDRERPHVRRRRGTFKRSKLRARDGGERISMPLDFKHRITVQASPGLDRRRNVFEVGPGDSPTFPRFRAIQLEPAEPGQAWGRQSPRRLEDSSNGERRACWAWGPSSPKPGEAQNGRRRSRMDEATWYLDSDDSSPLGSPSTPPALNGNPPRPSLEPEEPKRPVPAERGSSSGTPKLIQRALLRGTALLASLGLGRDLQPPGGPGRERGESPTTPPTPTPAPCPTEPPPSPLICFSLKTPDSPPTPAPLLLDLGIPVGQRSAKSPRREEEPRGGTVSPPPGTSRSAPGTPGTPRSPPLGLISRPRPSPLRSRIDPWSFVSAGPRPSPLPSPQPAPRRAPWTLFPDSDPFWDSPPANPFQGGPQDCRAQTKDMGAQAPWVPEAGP

SMILES: O=C(NOC[C@H](O)CO)c1ccc(F)c(F)c1Nc1ccc(I)cc1F
% of control [1]: 100%

% of control ([2]; at 1 µM): 88%
% of control ([2]; at 5 µM): 87%
SMILES: C=CC(=O)Nc1cccc(C(=O)Nc2ccc(Nc3cc(-c4[nH]c(SC)nc4C)ccn3)cc2)c1

SMILES: Cc1cc(F)c(C(=O)Nc2cccc(-c3nncn3C(C)C)n2)cc1-n1cnc(C2CC2)c1
% of control [3]: 87%

dTM [4]: -1.45 K
SMILES: Cc1cc(CN)cc(C)c1-c1ncn(C)c1-c1cncn1C

SMILES: CCC(=O)N1CCN(c2ccc(-n3c(=O)ccc4cnc5ccc(-c6cnc7ccccc7c6)cc5c43)cc2C(F)(F)F)CC1
% of control [5]: 69%
